From patent US7598340B2, “Monoclonal antibody to a human MDR1 multidrug resistance gene product, and uses” (The Board of Trustees of the University of Illinois, priority 1992, dated 2009)

Legend:
[1] = test system: BALB/c 3T3-1000 fibroblasts; assay: Colony formation by BALB/c 3T3-1000 fibroblasts in the presence of vinblastine; type: cell-based, mouse; details: BALB/c 3T3-1000 cell line
Procedure: The effects of antibody preparations of the invention on drug cytotoxicity may be assessed by incubating suspensions of MDR and control cells with the antibody preparation, then testing for cell growth inhibition by colony formation, plating efficiency, and/or MTT growth inhibition assay^13,16 in the absence and presence of an anti-cancer drug such as one of the vinca alkaloids. BALB/c 3T3-1000 fibroblasts are particularly suitable for plating efficiency assays and the MDR cell line K562/inf for the growth inhibition assay. The effects of antibody preparations on drug cytotoxicity may be assayed by incubating cell suspensions with a purified antibody preparation, and plating cells in microtitre plate wells for colony or growth inhibition assays in the presence of the antibody preparation.
All drugs were obtained from Sigma, except for G418 (Gibco) and taxol (gift of Dr. S. B. Horwitz). Colony formation and MTT assays for cell growth inhibition were carried out by art-recognized procedures. […]
In the system described in FIG. 3B, we examined the effects of different mAb on colony formation by BALB/c 3T3-1000 fibroblasts in the presence of vinblastine. […] Colonies were fixed with methanol or ethanol and stained with crystal violet on day 11, and scored for plating efficiency.

BALB/c 3T3-1000 cells = assay: Cell growth inhibition of BALB/c 3T3-1000 cells by vinblastine with mAb or verapamil; type: cell-based, mouse; details: 350 ng/ml vinblastine

Row | SMILES | ID90 of vinblastine [1] [µg/mL] | concentration achieving the same potentiation of vinblastine toxicity (BALB/c 3T3-1000 cells) [µM]
1 | CC[C@]1(O)C[C@@H]2CN(CCc3c([nH]c4ccccc34)[C@@](C(=O)OC)(c3cc4c(cc3OC)N(C)[C@H]3[C@@](O)(C(=O)OC)[C@H](OC(C)=O)[C@]5(CC)C=CCN6CC[C@]43[C@@H]65)C2)C1 [vinblastine] | 0.35 | 
2 | COc1ccc(CCN(C)CCCC(C#N)(c2ccc(OC)c(OC)c2)C(C)C)cc1OC (centres unmarked) [Verapamil, verapamil] |  | 3
